Measurements: US7816371B2, “Bicycloheteroaryl compounds as P2X7 modulators and uses thereof” (Renovis, Inc., priority 2006, dated 2010)

Test system: not listed separately
Test: Pharmacokinetic evaluation following intravenous and oral administration in rats (oral bioavailability)
Type: in vivo, Male Sprague-Dawley rats
Settings: PO 1 to 5 mg/kg vs IV 1 mg/kg, AUCinf normalized to dose
Method: Male Sprague-Dawley rats are acclimatized for at least 24 hours prior to experiment initiation. […] During the first 3 hours of experimentation, the animals receive only water ad libitum. At least three animals each are tested for intravenous and oral dosage. For intravenous formulation, compounds were dissolved (0.25 to 1 mg/mL) in a mixture of 3% dimethyl sulfoxide, 40% PEG 400 and the rest percentage of 40% Captisol in water (w/v). The animals are weighed before dosing. The determined body weight is used to calculate the dose volume for each animal.
PO rats are typically dosed through oral gavage following the same dose volume formula as IV to achieve a dose level of 1 to 5 mg/kg. […] About 250 uL of blood is obtained at each time point from the animal. Equal volumes of 0.9% normal saline are replaced to prevent dehydration. The whole blood samples are maintained on ice until centrifugation. Blood samples are then centrifuged at 14,000 rpm for 10 minutes at 4° C. and the upper plasma layer transferred into a clean vial and stored at −80° C. The resulting plasma samples are then analyzed by liquid chromatography-tandem mass spectrometry. Following the measurement of plasma samples and dosing solutions, plasma concentration-time curve is plotted. […] The % F is reported as the mean % F of all animals dosed orally with the compound of the invention at the specified level (see Table 4 below).

Oral Bioavailability F (%) | Compound
++ (26-50% F) | Cc1ccc2c(=O)n([C@H](C)CO)ccc2c1NC(=O)Cc1cccc(C(F)(F)F)c1F [Compound 395]

Biological target: T1, P2X7 receptor (Homo sapiens, UniProt Q99572)
T1 construct: host or cells: THP-1 cells differentiated with LPS and IFN-γ
T1 sequence (Q99572 1-595): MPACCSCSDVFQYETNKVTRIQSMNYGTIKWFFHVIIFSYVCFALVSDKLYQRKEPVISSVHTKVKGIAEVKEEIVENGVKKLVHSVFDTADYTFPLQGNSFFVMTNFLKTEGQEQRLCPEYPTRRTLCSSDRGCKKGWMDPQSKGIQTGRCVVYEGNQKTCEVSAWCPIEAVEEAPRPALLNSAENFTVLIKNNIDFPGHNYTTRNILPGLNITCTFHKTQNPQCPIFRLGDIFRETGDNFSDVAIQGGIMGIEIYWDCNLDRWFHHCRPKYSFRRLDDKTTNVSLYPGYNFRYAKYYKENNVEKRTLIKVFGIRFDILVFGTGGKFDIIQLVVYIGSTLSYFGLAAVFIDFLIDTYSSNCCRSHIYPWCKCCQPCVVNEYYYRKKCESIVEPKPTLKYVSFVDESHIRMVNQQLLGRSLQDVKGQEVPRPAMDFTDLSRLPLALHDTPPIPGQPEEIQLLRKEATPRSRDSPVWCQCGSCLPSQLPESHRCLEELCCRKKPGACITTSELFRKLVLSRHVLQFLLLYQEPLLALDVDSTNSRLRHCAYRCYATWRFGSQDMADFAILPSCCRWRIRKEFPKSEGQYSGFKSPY
Test: IL-1β release assay in differentiated THP-1 cells stimulated with BzATP (Example 9); % inhibition and IC50
Type: cell-based
Settings: THP-1 cells differentiated with LPS and IFN-γ, 30 min pretreatment, BzATP 250 uM, IL-1β by ELISA
Outline: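 Differentiated THP-1 cells pretreated 30 min with compound in RPMI before BzATP stimulation. Supernatant IL-1β measured by ELISA. Percent inhibition derived from background-adjusted IL-1β of treated versus untreated cells.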

IC50 [nM] | Compound
1.44 | Cc1ccc2c(c1NC(=O)Cc1ccc(C(F)(F)F)c(F)c1)CCN([C@H](C)CO)C2=O [Compound 401, N-[6-Methyl-2-((R)-2-hydroxy-1-methyl-ethyl)-1-oxo-1,2,3,4-tetrahydro-isoquinolin-5-yl]-2-(3-fluoro-4-trifluoromethyl-phenyl)-acetamide]
713 | C[C@H](C(N)=O)n1ccc2c(NC(=O)Cc3cccc(OC(F)(F)F)c3)cccc2c1=O [Compound 313]
121 | CC(C)C[C@H](CO)n1ccc2c(NC(=O)Cc3ccc(Cl)c(C(F)(F)F)c3)cccc2c1=O [Compound 280]
30.3 | O=C(Cc1ccc(Cl)c(Cl)c1)Nc1cccc2c(=O)n(CCO)ccc12 [Compound 8]
187 | O=C(Cc1ccc(Cl)cc1C(F)(F)F)Nc1cccc2c(=O)n(CCO)ccc12 [Compound 229]
406 | O=C(Cc1cc(C(F)(F)F)ccc1C(F)(F)F)Nc1cccc2c(=O)n(CCO)ccc12 [Compound 70]
5.07 | C[C@H](C(N)=O)n1ccc2c(NC(=O)Cc3ccc(C(F)(F)F)c(F)c3)cccc2c1=O [Compound 306]
60.6 | CC(C)C[C@H](CO)n1ccc2c(NC(=O)[C@@H](C)c3ccc(Cl)cc3)cccc2c1=O [Compound 271]
39.4 | C[C@H](CO)n1ccc2c(NC(=O)Cc3ccc(Cl)cc3F)cccc2c1=O [Compound 327]
1.14 | C[C@H](CO)n1ccc2c(NC(=O)Cc3ccc(Cl)c(C(F)(F)F)c3)cccc2c1=O [Compound 362]
272 | O=C(CCc1ccccc1)Nc1cccc2c(=O)n(CCO)ccc12 [Compound 3]
13.3 | C[C@H](C(=O)Nc1cccc2c(=O)n([C@H](C)C(N)=O)ccc12)c1ccc(Cl)cc1 [Compound 263]
> 1000 | C[C@H](C(N)=O)n1ccc2c(NC(=O)Cc3ccc(Cl)nc3)cccc2c1=O [Compound 312]
4.05 | C[C@H](C(N)=O)n1ccc2c(NC(=O)Cc3ccc(Cl)c(Cl)c3)cccc2c1=O [Compound 239]
10.5 | C[C@H](CO)n1ccc2c(NC(=O)Cc3ccc(F)c(C(F)(F)F)c3)cccc2c1=O [Compound 339]
93.7 | C[C@@H](C(=O)Nc1cccc2c(=O)n([C@@H](C)CO)ccc12)c1ccc(Cl)c(Cl)c1 [Compound 317]
15.5 | CC(C(=O)Nc1cccc2c(=O)n([C@@H](C)C(N)=O)ccc12)c1ccc(Cl)c(C(F)(F)F)c1 (stereo partly drawn) [Compound 356]
184 | C[C@H](C(N)=O)n1ccc2c(NC(=O)Cc3ccc(F)cc3C(F)(F)F)cccc2c1=O [Compound 295]
106 | CC(C)(CO)n1ccc2c(NC(=O)Cc3ccc(F)c(C(F)(F)F)c3)cccc2c1=O [Compound 367]

Test system: not listed separately
Test: Determination of aqueous (kinetic) solubility
Type: physicochemical
Settings: buffer pH 7.4, room temperature
Method: The mixture was vortexed for 1 hour and equilibrated overnight at room temperature. The mixture was filtered through a saturated filter and the filtrate was analyzed by LC/MS/MS.

solubility [µM] | Compound
> 75 | Cc1ccc2c(c1NC(=O)Cc1ccc(C(F)(F)F)c(F)c1)CCN([C@H](C)CO)C2=O [Compound 401, N-[6-Methyl-2-((R)-2-hydroxy-1-methyl-ethyl)-1-oxo-1,2,3,4-tetrahydro-isoquinolin-5-yl]-2-(3-fluoro-4-trifluoromethyl-phenyl)-acetamide]
